Results: paper PMC7025332 (Journal of Medicinal Chemistry, 2020)

Columns and labels:
U2OS cells [1] = assay: Western blotting of p21, MDM2 and p53 expression; assay type: cell-based; details: 30 μM, 16 h
HCT-116 p53+/+ cells = assay: MTT assay; assay type: cell-based; details: 200 μM, 48 h; for selectivity toward wild-type p53 cells versus p53-deletion cells: HCT-116 p53+/+ vs p53–/–; for suppression of proliferation of wild-type p53 cells: HCT-116 p53+/+
[2] = Cellular functional assay; assay type: cell-based; details: data not shown
U2OS cells [3] = assay: p53-responsive luciferase reporter assay; assay type: cell-based; details: U2OS BP100-luc/CMV-lacZ, 30 μM, 18 h
MDM2 = MDM2 (Homo sapiens, UniProt Q00987); assay: Fluorescence polarization binding affinity; details: methyl to 4-chloro phenyl mutation
Chain of MDM2 (Q00987 1-150): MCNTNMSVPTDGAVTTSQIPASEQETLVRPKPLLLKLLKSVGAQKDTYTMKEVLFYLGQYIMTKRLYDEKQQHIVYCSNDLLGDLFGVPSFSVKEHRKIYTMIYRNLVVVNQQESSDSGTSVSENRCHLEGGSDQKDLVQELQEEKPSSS

Row | improvement of Kd (MDM2) | Structure (SMILES) | MDM2 level (U2OS cells [1]) | p21 level (U2OS cells [1]; compared to control (PBS buffer)) | selectivity toward wild-type p53 cells versus p53-deletion cells (HCT-116 p53+/+ cells) | suppression of proliferation of wild-type p53 cells (HCT-116 p53+/+ cells) | activity in the cellular functional assay [2] | luciferase activity compared with p53 peptide (U2OS cells [3])
1 |  | CC(=O)N[C@@H](CC(C)C)CN(CC(=O)N[C@@H](Cc1ccccc1)CN(CC(=O)N[C@@H](CCC(=O)O)CN1CC(=O)N[C@@H](Cc2c[nH]c3ccccc23)CN(S(C)(=O)=O)CC(=O)N[C@@H](CCCCN)CN(CC(=O)N[C@@H](CC(C)C)CN(CC(=O)N[C@@H](C)CN(CC(N)=O)S(C)(=O)=O)S(=O)(=O)CC(C)C)S(=O)(=O)CCCC/C=C\CCCCS1(=O)=O)S(C)(=O)=O)S(=O)(=O)c1ccc(Cl)cc1 [PS11] | increased moderately | increased significantly | more selective toward wild-type p53 cells than p53-deletion cells | suppress proliferation of wild-type p53 cells more efficiently than the p53 peptides |  | 
2 |  | CC(=O)N[C@@H](CC(C)C)CN(CC(=O)N[C@@H](Cc1ccccc1)CN(CC(=O)N[C@@H](CCC(=O)O)CN(CC(=O)N[C@@H](Cc1c[nH]c2ccccc12)CN(CC(=O)N[C@@H](CCCCN)CN(CC(=O)N[C@@H](CC1CCC1)CN(CC(=O)N[C@@H](C)CN(CC(N)=O)S(C)(=O)=O)S(=O)(=O)CC(C)C)S(C)(=O)=O)S(C)(=O)=O)S(C)(=O)=O)S(C)(=O)=O)S(=O)(=O)c1ccc(Cl)cc1 [PS10] |  |  | more selective toward wild-type p53 cells than p53-deletion cells | suppress proliferation of wild-type p53 cells more efficiently than the p53 peptides | none of them is active | marginally increased luciferase activity
3 | ∼fourfold improvement | CC(=O)N[C@@H](CC(C)C)CN(CC(=O)N[C@@H](Cc1ccccc1)CN(CC(=O)N[C@@H](CCC(=O)O)CN(CC(=O)N[C@@H](Cc1c[nH]c2ccccc12)CN(CC(=O)N[C@@H](CCCCN)CN(CC(=O)N[C@@H](CC(C)C)CN(CC(=O)N[C@@H](C)CN(CC(N)=O)S(C)(=O)=O)S(=O)(=O)CC(C)C)S(C)(=O)=O)S(C)(=O)=O)S(C)(=O)=O)S(C)(=O)=O)S(=O)(=O)c1ccc(Cl)cc1 [PS4] |  |  |  |  | none of them is active | marginally increased luciferase activity
4 |  | CC(=O)N[C@@H](CC(C)C)CN(CC(=O)N[C@@H](Cc1ccccc1)CN(CC(=O)N[C@@H](CCC(=O)O)CN1CC(=O)N[C@@H](Cc2c[nH]c3ccccc23)CN(S(C)(=O)=O)CC(=O)N[C@@H](CCCCN)CN(CC(=O)N[C@@H](CC(C)C)CN(CC(=O)N[C@@H](C)CN(CC(N)=O)S(C)(=O)=O)S(=O)(=O)CC(C)C)S(=O)(=O)CC/C=C/CCCCS1(=O)=O)S(C)(=O)=O)S(=O)(=O)c1ccc(Cl)cc1 [PS12] | increased moderately |  |  |  |  | 
